Source: publication PMC3471820, “The CoxD Protein, a Novel AAA+ ATPase Involved in Metal Cluster Assembly: Hydrolysis of Nucleotide-Triphosphates and Oligomerization” (PLoS ONE, 2012)
One block for each molecule: values may come before it.

How the values were obtained:
CoxD [1] = target: T1, CoxD (Afipia carboxidovorans, UniProt Q51326); assay: GTP hydrolysis, inorganic phosphate release; type: biochemical; conditions: 100 mM Tris/acetate pH 8.0, 1 mM Na2GTP, 1 mM Mg-acetate, 25 °C; weak side activity
T1 construct: mainly hexamer, also dimer and tetramer (homo-oligomer)
T1 sequence (Q51326 1-295): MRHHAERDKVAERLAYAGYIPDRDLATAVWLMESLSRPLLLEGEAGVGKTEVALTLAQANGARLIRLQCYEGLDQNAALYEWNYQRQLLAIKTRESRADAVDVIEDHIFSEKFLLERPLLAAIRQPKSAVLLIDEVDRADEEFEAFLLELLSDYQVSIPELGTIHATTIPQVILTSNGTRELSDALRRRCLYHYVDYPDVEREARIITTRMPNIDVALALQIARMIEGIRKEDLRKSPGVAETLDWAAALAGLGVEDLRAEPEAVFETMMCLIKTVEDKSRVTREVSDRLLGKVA

CoxD [2] = target: T1, CoxD; assay: inhibition of ATP hydrolysis, ADP release; type: biochemical; conditions: 100 mM Tris/acetate pH 8.0, 1 mM Mg-acetate, 25 °C; refolded enzyme; 1 mM ATP; competes with ATP; slowly hydrolysable analogue
purified protein = substrate: Nc1ncnc2c1ncn2[C@@H]1O[C@H](COP(=O)(O)OP(=O)(O)OP(=O)(O)O)[C@@H](O)[C@H]1O; assay: purified protein; conditions: 100 mM Tris/acetate pH 8.0, 1 mM Mg-acetate, 25 °C, refolded enzyme

- GTP hydrolysis, inorganic phosphate release (CoxD [1]): formed from GTP
Molecule: Nc1nc2c(ncn2[C@@H]2O[C@H](COP(=O)(O)OP(=O)(O)OP(=O)(O)O)[C@@H](O)[C@H]2O)c(=O)[nH]1 [GTP]

Molecule: Nc1ncnc2c1ncn2[C@@H]1O[C@H](COP(=O)(O)OP(=O)(O)OP(O)(O)=S)[C@@H](O)[C@H]1O [ATP-γ-S]
- inhibition of ATP hydrolysis (qualitative) (CoxD [2]): It very effectively competed with ATP for CoxD

B1: CoxD (Afipia carboxidovorans OM5) (protein)
chain: MRHHAERDKVAERLAYAGYIPDRDLATAVWLMESLSRPLLLEGEAGVGKTEVALTLAQANGARLIRLQCYEGLDQNAALYEWNYQRQLLAIKTRESRADAVDVIEDHIFSEKFLLERPLLAAIRQPKSAVLLIDEVDRADEEFEAFLLELLSDYQVSIPELGTIHATTIPQVILTSNGTRELSDALRRRCLYHYVDYPDVEREARIITTRMPNIDVALALQIARMIEGIRKEDLRKSPGVAETLDWAAALAGLGVEDLRAEPEAVFETMMCLIKTVEDKSRVTREVSDRLLGKVA
- Km (purified protein): 690 ± 140 µM
